Laboratory results from PubChem BioAssay AID328 (DTP/NCI, 2004).
Inconclusive results and toxic doses are left out.

Tested on: BDF1 mice, P388 leukemia ip, median survival T/C
Assay: NCI In Vivo Anticancer Drug Screen. Data for tumor model P388 Leukemia (intraperitoneal) in B6D2F1 (BDF1) mice
Details: endpoint: median survival time, higher = longer survival
In short: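 Compound-treated tumour-bearing mice were compared with vehicle-treated controls. Survival was recorded, and the value is the treated-group measurement divided by the control-group measurement (T/C).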

Which results are given for `CC1CC(C)(C)[N+](C)=C(CC(O)(c2ccccc2)c2ccccc2)O1` (stereo not drawn)?
T/C (dose: 6.25 mg/kg/injection, schedule: Q04DX003 (ip), vehicle: saline sonified): 109 % of control; T/C (dose: 12.5 mg/kg/injection, schedule: Q04DX003 (ip), vehicle: saline sonified): 90 % of control; T/C (dose: 25.0 mg/kg/injection, schedule: Q04DX003 (ip), vehicle: saline sonified): 90 % of control

With `COC(=O)[C@@H]1c2cc3c(c(O)c2[C@@H](OC2OC(C)C(OC)C(C)(OC)C2OC)C[C@]1(C)O)C(=O)c1c(O)cc2c(c1C3=O)O[C@H]1O[C@]2(C)[C@H](O)[C@@H](N(C)C)[C@@H]1O` (stereo partly drawn) as the compound, how does the T/C (dose: 0.13 mg/kg/injection, schedule: Q01DX010 (ip), vehicle: saline) read?
Its T/C is 113 % of control.

What about the T/C (dose: 0.19 mg/kg/injection, schedule: Q01DX010 (ip), vehicle: saline) of the same compound?
Its T/C is 154 % of control.

And the T/C (dose: 0.25 mg/kg/injection, schedule: Q01DX009 (sc), vehicle: saline)?
Its T/C is 100 % of control.

What about the T/C (dose: 0.25 mg/kg/injection, schedule: Q01DX010 (ip), vehicle: saline) of the same compound?
Its T/C is 109 % of control.

And the T/C (dose: 0.38 mg/kg/injection, schedule: Q01DX010 (ip), vehicle: saline)?
Its T/C is 150 % of control.

What about the T/C (dose: 0.5 mg/kg/injection, schedule: Q01DX009 (sc), vehicle: saline) of the same compound?
The T/C was 100 % of control.

What about the T/C (dose: 0.75 mg/kg/injection, schedule: Q01DX001 (sc), vehicle: saline) of the same compound?
Its T/C is 100 % of control.

And the T/C (dose: 1.0 mg/kg/injection, schedule: Q01DX009 (ip), vehicle: saline)?
The T/C was 109 % of control.

What about the T/C (dose: 1.0 mg/kg/injection, schedule: Q01DX009 (sc), vehicle: saline) of the same compound?
Its T/C is 100 % of control.

What about the T/C (dose: 1.0 mg/kg/injection, schedule: Q01DX010 (ip), vehicle: saline) of the same compound?
Its T/C is 155 % of control.

And the T/C (dose: 1.5 mg/kg/injection, schedule: Q01DX001 (sc), vehicle: saline)?
Its T/C is 100 % of control.

And the T/C (dose: 2.0 mg/kg/injection, schedule: Q01DX009 (ip), vehicle: saline)?
Its T/C is 100 % of control.

And the T/C (dose: 2.0 mg/kg/injection, schedule: Q01DX009 (oral), vehicle: saline)?
Its T/C is 100 % of control.

What about the T/C (dose: 2.0 mg/kg/injection, schedule: Q01DX009 (sc), vehicle: saline) of the same compound?
Its T/C is 100 % of control.

And the T/C (dose: 2.16 mg/kg/injection, schedule: Q04DX003 (ip), vehicle: water)?
The T/C was 95 % of control.

What about the T/C (dose: 3.0 mg/kg/injection, schedule: Q01DX001 (sc), vehicle: saline) of the same compound?
Its T/C is 100 % of control.

What about the T/C (dose: 3.0 mg/kg/injection, schedule: Q04DX003 (ip), vehicle: water) of the same compound?
Its T/C is 107 % of control.

And the T/C (dose: 4.0 mg/kg/injection, schedule: Q01DX009 (ip), vehicle: saline)?
Its T/C is 100 % of control.

And the T/C (dose: 4.0 mg/kg/injection, schedule: Q01DX009 (oral), vehicle: saline)?
The T/C was 100 % of control.

And the T/C (dose: 4.0 mg/kg/injection, schedule: Q01DX009 (sc), vehicle: saline)?
The T/C was 104 % of control.

And the T/C (dose: 5.0 mg/kg/injection, schedule: Q01DX001 (oral), vehicle: saline)?
The T/C was 100 % of control.

What about the T/C (dose: 6.0 mg/kg/injection, schedule: Q01DX001 (sc), vehicle: saline) of the same compound?
The T/C was 100 % of control.

And the T/C (dose: 8.0 mg/kg/injection, schedule: Q01DX009 (oral), vehicle: saline)?
Its T/C is 100 % of control.

And the T/C (dose: 10.0 mg/kg/injection, schedule: Q01DX001 (oral), vehicle: saline)?
Its T/C is 100 % of control.

And the T/C (dose: 12.0 mg/kg/injection, schedule: Q01DX001 (sc), vehicle: saline)?
Its T/C is 100 % of control.

And the T/C (dose: 16.0 mg/kg/injection, schedule: Q01DX009 (oral), vehicle: saline)?
Its T/C is 100 % of control.

And the T/C (dose: 20.0 mg/kg/injection, schedule: Q01DX001 (oral), vehicle: saline)?
The T/C was 100 % of control.

What about the T/C (dose: 40.0 mg/kg/injection, schedule: Q01DX001 (oral), vehicle: saline) of the same compound?
The T/C was 100 % of control.

What about the T/C (dose: 7.0 micrograms/kg/injection, schedule: Q01DX010 (ip), vehicle: saline) of the same compound?
Its T/C is 110 % of control.

What about the T/C (dose: 15.0 micrograms/kg/injection, schedule: Q01DX010 (ip), vehicle: saline) of the same compound?
Its T/C is 90 % of control.

And the T/C (dose: 30.0 micrograms/kg/injection, schedule: Q01DX010 (ip), vehicle: saline)?
Its T/C is 110 % of control.

What does the source list for `NNc1ncnc2c(C3OC(CO)C(O)C3O)[nH]nc12` (stereo not drawn)?
T/C (dose: 20.0 mg/kg/injection, schedule: Q01DX009 (ip), vehicle: water): 100 % of control; T/C (dose: 30.0 mg/kg/injection, schedule: Q01DX009 (ip), vehicle: water): 105 % of control; T/C (dose: 45.0 mg/kg/injection, schedule: Q01DX009 (ip), vehicle: water): 110 % of control; T/C (dose: 67.0 mg/kg/injection, schedule: Q01DX009 (ip), vehicle: water): 95 % of control; T/C (dose: 100.0 mg/kg/injection, schedule: Q01DX009 (ip), vehicle: water): 100 % of control

Which T/C (dose: 13.2 mg/kg/injection, schedule: Q01DX009 (ip), vehicle: saline with Tween-80) does the source give for `Nc1nc(=S)c2ncn(C3OC(COC(=O)c4ccccc4)C(OC(=O)c4ccccc4)C3OC(=O)c3ccccc3)c2[nH]1` (stereo not drawn) here?
The T/C was 120 % of control.

What about the T/C (dose: 33.0 mg/kg/injection, schedule: Q01DX009 (ip), vehicle: saline with Tween-80) of the same compound?
Its T/C is 154 % of control.

What about the T/C (dose: 75.0 mg/kg/injection, schedule: Q01DX009 (ip), vehicle: saline with Tween-80) of the same compound?
The T/C was 90 % of control.

And the T/C (dose: 100.0 mg/kg/injection, schedule: Q04DX003 (ip), vehicle: saline)?
The T/C was 163 % of control.
